Laboratory results as given in US20100204114A1, “USE OF A GALANIN PEPTIDE AS A THERAPEUTIC AGENT” (priority 2007, published 2010).
Where no end group is shown, it is not given here.

Columns and labels:
[1] = tested on: HCMV strain AD169; assay: HCMV plaque formation assay in MRC-5 cells; conditions: for inhibition of HCMV plaque formation as compared to the virus control: 10 micrograms per ml, 7-10 days
[2] = tested on: spleen cells of Ovalbumin-immunized Balb/c mice; assay: Th1/Th2 cytokine profiling assay (Ovalbumin-restimulated spleen cells, CBA kit); format: cell-based, mouse; conditions: 10 micrograms per ml; Ovalbumin restimulation; 72 hours
Excerpt: The Balb/c mice (originated in 1923, it is a popular strain and is used in many different research disciplines. […] On day 50, spleens of the mice were harvested (3 weeks after last boost with Ovalbumin). […] This kit can be used to measure Interleukin-2 (IL-2), Interleukin-4 (IL-4), Interleukin-5 (IL-5), Interferon-γ (IFN-γ), and Tumor Necrosis Factor-α (TNF-α) protein levels in a single sample. The kit performance has been optimized for analysis of physiologically relevant concentrations ([…] levels) of specific cytokine proteins in tissue culture supernatants and serum samples.

[3] = tested on: Primary Human endothelial cells (HUVEC); assay: Endothelial cell migration assay; format: cell-based; conditions: 10 micrograms per ml, 22 hours
[4] = tested on: hepatitis B virus (HBV) ayw strain in HepG2-2.2.15 cells; assay: HBV experimental assay system, secreted HBV DNA by TaqMan PCR; format: cell-based; conditions: 10 micrograms per ml, six days
Excerpt: HepG2-2.2.15 is a stable cell line containing the hepatitis B virus (HBV) ayw strain genome (ATCC Cat. No. CRL-11997). Antiviral compounds blocking any late step of viral replication such as transcription, translation, pregenome encapsidation, reverse transcription, particle assembly and release can be identified and characterized using this cell line. In this assay, an active compound will reduce the production of secreted HBV from cells, measured by utilizing real time quantitative PCR (TaqMan) assay to directly and accurately measure HBV DNA copies.
HepG2-2.2.15 cells were plated in 96-well microtiter plates. After 16-24 hours the confluent monolayer of HepG2-2.2.15 cells was washed and the medium was replaced with complete medium containing test peptides—10 micrograms per ml—in duplicate. […] Six days following the initial administration of the peptides, the cell culture supernatants was collected, treated with pronase and DNAse and then used in a real-time quantitative TaqMan PCR assay. The PCR-amplified HBV DNA was detected in real-time by monitoring increases in fluorescence signals that result from the exonucleolytic degradation of a quenched fluorescence probe molecule that hybridizes to the amplified HBV DNA. […] Antiviral activity was calculated from the reduction in HBV DNA levels (% virus control). […]

[5] = tested on: HUVEC; assay: Endothelial tube formation assay; format: cell-based, human; conditions: 10 micrograms per ml, 20 hours
[6] = tested on: HIV-1IIIB; assay: HIV-1 antiviral assay in CEM-SS cells (MTS readout); format: cell-based

Row | Compound | inhibition of HCMV plaque formation as compared to the virus control [1] | IFNγ spleen cells; TH1 response (% of control) [2] | IL-2 spleen cells (% of control) [2] | IL-4 spleen cells; TH2 response (% of control) [2] | IL-5 spleen cells; TH2 response (% of control) [2] | TNF-a spleen cells; TH1 response (% of control) [2] | inhibition of the migration of human endothelial cells [3] | inhibition of HBV replication as compared to the virus control infection [4] | inhibition of the tube formation of endothelial cells [5] | antiviral activity of positive control compounds (HIV-1) [6] | antiviral activity of positive control compound (HCMV) ([1]; positive control)
1 | Ile-Tyr-Leu-Gly-Gly-Pro-Phe-Ser-Pro-Asn-Val-Leu-OH (IYLGGPFSPNVL-OH) [peptide 2] | did not inhibit | 102.8 % of control | 150.7 % of control | 182.0 % of control | 73.5 % of control | 114.1 % of control | did not inhibit | 34.1% | 29% |  | 
2 | CC(C)(C)NC(=O)[C@@H]1CN(Cc2cccnc2)CCN1C[C@@H](O)C[C@@H](Cc1ccccc1)C(=O)N[C@H]1c2ccccc2C[C@H]1O [indinavir] |  |  |  |  |  |  |  |  |  | expected levels of antiviral activity | 
3 | Gly-Trp-Thr-Leu-Asn-Ser-Ala-Gly-Tyr-Leu-Leu-Gly-Pro-His-Ala-Val-Gly-Asn-His-Arg-Ser-Phe-Ser-Asp-Lys-Asn-Gly-Leu-Thr-Ser-OH [peptide 1] | did not inhibit | 144.1 % of control | 149.6 % of control | 115.3 % of control | 78.8 % of control | 118.8 % of control | 29% | no effect | 11% |  | 
4 | Nc1nc(O)c2ncn(COC(CO)CO)c2n1 [Ganciclovir, reference compound] |  |  |  |  |  |  |  |  |  |  | expected levels of antiviral activity
5 | Cc1cn([C@H]2C[C@H](N=[N+]=[N-])[C@@H](CO)O2)c(=O)[nH]c1=O [AZT] |  |  |  |  |  |  |  |  |  | expected levels of antiviral activity | 
